Laboratory results taken from patent publication US20160376240A1, “6 Phenyl or 6 Pyridin 3 YL Indazole Derivatives and Methods of Use” (ABBVIE INC., priority 2014, published 2016).
pIC50: −log10 of the molar value.

The compounds below were run against T1, TrkA (Homo sapiens, UniProt P04629) (assay: TrkA kinase inhibition, HTRF assay). Details: LCK peptide substrate 125 nM, TrkA 2-10 nM pre-incubated with ATP 200 μM.
T1 construct: purchased Invitrogen PV3144
Assay type: biochemical
Method: TrkA, TrkB, and TrkC enzymes were obtained from Invitrogen (as catalog numbers PV3144, PV3616, and PV3617, respectively). The ability of a compound to inhibit the enzymatic activity of the TrkA, TrkB, and TrkC enzymes was determined in separate assays. Enzyme activity was measured in an HTRF® (homogeneous time resolved fluorescence) assay, which detects enzymatic phosphorylation of a biotinylated synthetic peptide substrate (an LCK peptide analog, biotin-ahx-GAEEEIYAAFFA, from Genemed Synthesis). Phosphorylation is assessed by HTRF® in the presence of an anti-phosphotyrosine antibody conjugated to Eu^3+ cryptate (Cisbio) as donor fluorophore, and streptavidin conjugated to allophycocyanin (ProZyme) as acceptor fluorophore. The HTRF® signal was detected at two different wavelengths (620 nm and 665 nm) which were used to calculate the fluorescence ratio.
Each enzyme was titrated to a concentration optimized to ensure accurate measurement of the initial reaction rate. To allow the Trk enzymes to undergo activation and auto-phosphorylation, a 20 minute pre-incubation with ATP was carried out (at twice the final targeted enzyme and ATP concentration) prior to addition of test compound and the peptide substrate.
TrkA in vitro assays were performed by pre-incubating TrkA (2-10 nM) with ATP (200 μM) for 20 minutes at ambient temperature in 50 mM HEPES pH 7.4, 10 mM MgCl2, 2 mM MnCl2, 100 μM Na3VO4, 1 mM dithiothreitol, 0.01% BSA (bovine serum albumin). Then, to the activated Trk enzyme mixture was added the test compound in 2% dimethyl sulfoxide. After 10 minutes, the peptide substrate (125 nM) was added. After 1 hour, enzyme reactions were terminated by addition of equal reaction volumes of detection/stop reagent (containing 0.2 μg/mL anti-phosphotyrosine monoclonal antibody labeled with europium from Cisbio (catalog# PT66-K), and 4 μg/mL PhycoLink® Streptavidin-Allophycocyanin conjugate from ProZyme (catalog# PJ25S) in 60 mM EDTA in 40 mM HEPES pH 7.4, 480 mM KF, 0.01% Tween® 20 and 0.1% BSA bovine serum albumin) Reaction plates were stored at 4° C. overnight before reading the fluorescence ratio signal on a PerkinElmer EnVision™ fluorescence detector. Individual reaction wells were stopped at time points to obtain reaction rates. The test inhibitor compounds were assayed in duplicate, at half-log serial dilutions over a range of concentrations (e.g. starting at 50 μM or 5 μM as the high compound concentration). The percent Trk enzyme inhibition was calculated from the initial rates of the inhibited reactions relative to the uninhibited control. IC50 values were calculated by fitting the inhibition percent to the concentration of inhibitor [I] in the assay in equation 1 below, to solve for the IC50.
Inhibition %=100[I]/([I]+[IC50]) equation 1

T1 sequence (P04629 33-796): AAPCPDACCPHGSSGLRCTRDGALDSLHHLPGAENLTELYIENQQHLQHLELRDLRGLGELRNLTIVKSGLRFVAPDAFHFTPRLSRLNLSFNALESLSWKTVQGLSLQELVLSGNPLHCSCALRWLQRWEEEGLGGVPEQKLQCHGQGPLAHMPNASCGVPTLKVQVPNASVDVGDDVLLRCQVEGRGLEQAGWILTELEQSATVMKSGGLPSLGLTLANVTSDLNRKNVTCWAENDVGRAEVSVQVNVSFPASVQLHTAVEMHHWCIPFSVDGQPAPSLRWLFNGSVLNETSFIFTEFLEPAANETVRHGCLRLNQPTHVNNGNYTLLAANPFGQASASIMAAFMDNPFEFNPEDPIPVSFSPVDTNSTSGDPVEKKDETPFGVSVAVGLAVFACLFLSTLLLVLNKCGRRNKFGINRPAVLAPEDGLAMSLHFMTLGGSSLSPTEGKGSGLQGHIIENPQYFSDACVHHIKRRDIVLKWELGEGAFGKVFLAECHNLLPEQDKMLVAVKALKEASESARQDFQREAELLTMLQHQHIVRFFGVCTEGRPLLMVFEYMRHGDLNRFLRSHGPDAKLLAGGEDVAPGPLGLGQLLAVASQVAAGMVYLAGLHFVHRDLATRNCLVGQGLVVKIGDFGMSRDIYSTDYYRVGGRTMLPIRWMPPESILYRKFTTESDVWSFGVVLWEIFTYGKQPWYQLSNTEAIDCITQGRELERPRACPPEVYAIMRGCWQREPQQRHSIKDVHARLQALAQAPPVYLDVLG

| pIC50 | SMILES |
| --- | --- |
| 7.57 | CNC(=O)c1ccc(-c2cc(OC3CCOCC3)c3c(N)n[nH]c3c2)cc1N1CCN(C(=O)OC(C)(C)C)CC1 [Example 111, tert-butyl 4-{5-[3-amino-4-(tetrahydro-2H-pyran-4-yloxy)-1H-indazol-6-yl]-2-(methylcarbamoyl)phenyl}piperazine-1-carboxylate] |
| 6.28 | CNC(=O)c1ccc(-c2cc(O[C@H](C)C(F)(F)F)c3c(N)n[nH]c3c2)cc1N1CCN(C2CCC2)CC1 [Example 50, 4-(3-amino-4-{[(2R)-1,1,1-trifluoropropan-2-yl]oxy}-1H-indazol-6-yl)-2-(4-cyclobutylpiperazin-1-yl)-N-methylbenzamide] |
| 7.66 | CNC(=O)c1ccc(-c2cc(OC3CCOCC3)c3c(N)n[nH]c3c2)cc1N1CCN(CC(C)(F)F)CC1 [Example 172, 4-[3-amino-4-(tetrahydro-2H-pyran-4-yloxy)-1H-indazol-6-yl]-2-[4-(2,2-difluoropropyl)piperazin-1-yl]-N-methylbenzamide] |
| 8.15 | CNC(=O)c1ccc(-c2cc(OC3CCOCC3)c3c(N)n[nH]c3c2)cc1N1CCNCC1 [Example 112, 4-[3-amino-4-(tetrahydro-2H-pyran-4-yloxy)-1H-indazol-6-yl]-N-methyl-2-(piperazin-1-yl)benzamide] |
| 7.42 | CC(=O)c1ccc(-c2cc(OC3CCOCC3)c3c(N)n[nH]c3c2)cc1N1CCN(C2CCCCC2)CC1 [Example 19, 1-{4-[3-amino-4-(tetrahydro-2H-pyran-4-yloxy)-1H-indazol-6-yl]-2-(4-cyclohexylpiperazin-1-yl)phenyl}ethanone] |
| 7.60 | NC(=O)c1ccc(-c2cc(OC3CCNCC3)c3c(N)n[nH]c3c2)cc1N1CCN(c2ccccc2)CC1 [Example 63, 4-[3-amino-4-(piperidin-4-yloxy)-1H-indazol-6-yl]-2-(4-phenylpiperazin-1-yl)benzamide] |
| 8.09 | CNC(=O)c1ccc(-c2cc(OC3CCOCC3)c3c(C)n[nH]c3c2)cc1N1CCN(C(=O)OC(C)(C)C)CC1 [Example 122, tert-butyl 4-{2-(methylcarbamoyl)-5-[3-methyl-4-(tetrahydro-2H-pyran-4-yloxy)-1H-indazol-6-yl]phenyl}piperazine-1-carboxylate] |
| 7.33 | C=CC(=O)Nc1ccc(-c2cc(OC3CCOCC3)c3c(C)n[nH]c3c2)cc1N1CCN(C2CCCCC2)CC1 [Example 131, N-{2-(4-cyclohexylpiperazin-1-yl)-4-[3-methyl-4-(tetrahydro-2H-pyran-4-yloxy)-1H-indazol-6-yl]phenyl}acrylamide] |
| 7.49 | CNC(=O)c1ccc(-c2cc(O[C@@H](C)C(F)(F)F)c3c(N)n[nH]c3c2)cc1N1CCN(c2cnccn2)CC1 [Example 46, 4-(3-amino-4-{[(2S)-1,1,1-trifluoropropan-2-yl]oxy}-1H-indazol-6-yl)-N-methyl-2-[4-(pyrazin-2-yl)piperazin-1-yl]benzamide] |
| 7.00 | CC(=O)c1ccc(-c2cc(OC3CCOCC3)c3c(N)n[nH]c3c2)cc1N1CCN(C(=O)C2CC2)CC1 [Example 20, 1-{4-[3-amino-4-(tetrahydro-2H-pyran-4-yloxy)-1H-indazol-6-yl]-2-[4-(cyclopropylcarbonyl)piperazin-1-yl]phenyl}ethanone] |
| 7.80 | CC(=O)C(=O)Nc1ccc(-c2cc(OC3CCOCC3)c3c(C)n[nH]c3c2)cc1N1CCN(C2CCCCC2)CC1 [Example 133, N-{2-(4-cyclohexylpiperazin-1-yl)-4-[3-methyl-4-(tetrahydro-2H-pyran-4-yloxy)-1H-indazol-6-yl]phenyl}-2-oxopropanamide] |
| 7.44 | CC(=O)c1ccc(-c2cc(OC3CCOCC3)c3c(N)n[nH]c3c2)cc1N1CCN(CCC(C)(C)C)CC1 [Example 18, 1-{4-[3-amino-4-(tetrahydro-2H-pyran-4-yloxy)-1H-indazol-6-yl]-2-[4-(3,3-dimethylbutyl)piperazin-1-yl]phenyl}ethanone] |
| 7.13 | Cc1n[nH]c2cc(-c3cncc(N4CCN(c5ccccc5)CC4)c3)cc(OC3CCCC3)c12 [Example 161, 4-(cyclopentyloxy)-3-methyl-6-[5-(4-phenylpiperazin-1-yl)pyridin-3-yl]-1H-indazole] |
| 7.76 | CNC(=O)c1ccc(-c2cc(OC3CCCC3)c3c(C)n[nH]c3c2)cc1N1CCN(C2CCCCC2)CC1 [Example 121, 2-(4-cyclohexylpiperazin-1-yl)-4-[4-(cyclopentyloxy)-3-methyl-1H-indazol-6-yl]-N-methylbenzamide] |
| 7.85 | CC(Oc1cc(-c2ccc(C(N)=O)c(N3CCN(C(=O)C(C)(C)C)CC3)c2)cc2[nH]nc(N)c12)C(F)(F)F (centres unmarked) [Example 104, 4-{3-amino-4-[(1,1,1-trifluoropropan-2-yl)oxy]-1H-indazol-6-yl}-2-[4-(2,2-dimethylpropanoyl)piperazin-1-yl]benzamide] |
| 7.71 | CC(Oc1cc(-c2ccc(C(N)=O)c(N3CCN(C(=O)C4CC4)CC3)c2)cc2[nH]nc(N)c12)C(F)(F)F (centres unmarked) [Example 103, 4-{3-amino-4-[(1,1,1-trifluoropropan-2-yl)oxy]-1H-indazol-6-yl}-2-[4-(cyclopropylcarbonyl)piperazin-1-yl]benzamide] |
| 7.51 | CC(=O)Nc1ccc(-c2cc(OC3CCOCC3)c3c(C)n[nH]c3c2)cc1N1CCN(C2CCCCC2)CC1 [Example 119, N-{2-(4-cyclohexylpiperazin-1-yl)-4-[3-methyl-4-(tetrahydro-2H-pyran-4-yloxy)-1H-indazol-6-yl]phenyl}acetamide] |
| 7.20 | CNC(=O)c1ccc(-c2cc(O[C@@H](C)C(F)(F)F)c3c(N)n[nH]c3c2)cc1N1CCN(c2ncccn2)CC1 [Example 43, 4-(3-amino-4-{[(2S)-1,1,1-trifluoropropan-2-yl]oxy}-1H-indazol-6-yl)-N-methyl-2-[4-(pyrimidin-2-yl)piperazin-1-yl]benzamide] |
| 7.69 | Nc1n[nH]c2cc(-c3ccc(C(=O)NC4CC4)c(N4CCN(c5cccnc5)CC4)c3)cc(OC3CCOCC3)c12 [Example 24, 4-[3-amino-4-(tetrahydro-2H-pyran-4-yloxy)-1H-indazol-6-yl]-N-cyclopropyl-2-[4-(pyridin-3-yl)piperazin-1-yl]benzamide] |
| 8.35 | CC(=O)Nc1ccc(-c2cc(OC3CCOCC3)c3c(C)n[nH]c3c2)cc1N1CCN(C(=O)OC(C)C)CC1 [Example 146, isopropyl 4-{2-acetamido-5-[3-methyl-4-(tetrahydro-2H-pyran-4-yloxy)-1H-indazol-6-yl]phenyl}piperazine-1-carboxylate] |
| 7.61 | NC(=O)c1ccc(-c2ccc3c(N)n[nH]c3c2)cc1N1CCN(c2ccccc2)CC1 [Example 84, 4-(3-amino-1H-indazol-6-yl)-2-(4-phenylpiperazin-1-yl)benzamide] |
| 6.68 | NC(=O)c1ccc(-c2cc(OC3CCOCC3)c3c(N)n[nH]c3c2)cc1N1CCN(CCOCCO)CC1 [Example 11, 4-[3-amino-4-(tetrahydro-2H-pyran-4-yloxy)-1H-indazol-6-yl]-2-{4-[2-(2-hydroxyethoxy)ethyl]piperazin-1-yl}benzamide] |
| 8.49 | CNC(=O)c1ccc(-c2cc(O[C@H](C)C(F)(F)F)c3c(N)n[nH]c3c2)cc1OCCOC1CCCCC1 [Example 105, 4-(3-amino-4-{[(2R)-1,1,1-trifluoropropan-2-yl]oxy}-1H-indazol-6-yl)-2-[2-(cyclohexyloxy)ethoxy]-N-methylbenzamide] |
| 6.85 | CNC(=O)c1ccc(-c2cc(O[C@H](C)C(F)(F)F)c3c(N)n[nH]c3c2)cc1N1CCN(c2cccnc2)CC1 [Example 49, 4-(3-amino-4-{[(2R)-1,1,1-trifluoropropan-2-yl]oxy}-1H-indazol-6-yl)-N-methyl-2-[4-(pyridin-3-yl)piperazin-1-yl]benzamide] |
| 6.52 | CNC(=O)c1ccc(-c2cc(O[C@@H](C)C(F)(F)F)c3c(N)n[nH]c3c2)cc1N1CCN(C(=O)C(C)(C)C)CC1 [Example 45, 4-(3-amino-4-{[(2S)-1,1,1-trifluoropropan-2-yl]oxy}-1H-indazol-6-yl)-2-[4-(2,2-dimethylpropanoyl)piperazin-1-yl]-N-methylbenzamide] |
| 7.90 | CC(=O)Nc1ccc(-c2cc(OC3CCOCC3)c3c(C)n[nH]c3c2)cc1N1CCN(Cc2ccccc2)CC1 [Example 145, N-{2-(4-benzylpiperazin-1-yl)-4-[3-methyl-4-(tetrahydro-2H-pyran-4-yloxy)-1H-indazol-6-yl]phenyl}acetamide] |
